One compound from patent US20080299123A1, “TREATMENT OF CHEMOTHERAPY- OR RADIOTHERAPY-RESISTANT TUMORS” (Deutsches Krebsforschungszentrum Stiftung des offentlichen …, priority 2006, published 2008) can be followed below.

Test [1] deals with cathepsin B and CRABPII transcription. Put plainly: L1-dependent gene regulation by qPCR in HEK293-hL1wt cells. It counts as cell-based, human. Particulars: preincubation 96 h. How it is done:
(A) Analysis of L1-32 cleavage by γ-secretase. Cells were treated for 48 h at 37° C. with presenilin inhibitor IX (DAPT) or for control with DMSO. Isolated membranes were incubated for 2 h at 37° C. and then separated into pellet or supernatant (SN) fractions by ultracentrifugation. Lanes 1 to 2 show cells treated with DMSO (vehicle). Lanes 3 and 4 show cells preincubated with DAPT. (B) SKOV3ip cells were treated with DAPT either in the presence or absence of the metalloprotease inhibitor TAPI-0 for 24 hr. Cells were lysed in BOG lysis buffer and analyzed by Western blot analysis. The cell supernatant was analyzed for soluble L1 using mAb L1-11A and the cell lysate was examined for L1-32 using peytL1. (C) HEK293 or HEK293-hL1wt cells were treated with DMSO, DAPT, TAPI-0 or both inhibitors for 96 h. mRNA was transcribed to cDNA and analyzed by qPCR for the genes CRABPII and cathepsin B. (D) Analysis of ERK phosphorylation in SKOV3ip cells after treatment with the indicated compounds.
We next investigated whether L1-mediated gene regulation was dependent on L1-processing, by carrying out inhibition experiments. […]
mRNA was isolated using the Quiagen RNAeasy mini kit (Quiagen Hilden, Germany). […] After exposing of the hybridized membranes, the PhosphorImager screens were scanned (Fuji FLA-3000, 100 μm resolution, Fuji BAS-reader software). […]
On the technique in general: Real-time PCR tracks product formation cycle by cycle.

Test [2] relates to L1CAM transfected PT45-P1 cells. Put plainly: Caspase-3/-7 assay in L1CAM transfected PT45-P1 cells. Format: cell-based, human. To be noted: inhibitor 10 μmol/L, 20 μg/mL etoposide 24 hours. How it is done:
PT45-P1res cells (a,b) or PT45-P1 cells transfected with L1CAM or an empty control vector (mock) (c,d) were left untreated (w/o) or were either treated with Tapi-0, Tapi-1, GM6001 or L685,458 (each 10 μmol/L) for 24 hours. (a,c) Cellular lysates were subjected to western blotting using either the antibody clone UJ127 from Acris detecting only full-length L1CAM or the pcytL1 antibody detecting also the cytoplasmic part of L1CAM. HSP90 was detected as a control for equal protein load. (b,d) Thirty minutes after treatment with the respective inhibitor, cells were either left untreated or treated with 20 μg/mL etoposide for 24 hours. Then, cells were analysed for caspase-3/-7 activity expressed as n-fold induction of caspase-3/-7 activity of basal. Means±SD from three independent experiments are shown. * indicates p<0.05.
As described elsewhere (Sebens Müerköster et al., 2006), apoptosis was determined by staining with annexinV/propidium iodide (Biocarta, Hamburg, Germany) and subsequent fluorescence flow cytometry (GalaxyArgon Plus; DAKO Cytomation, Hamburg, Germany) using the FLOMAX software, and by the detection of caspase-3/-7 activity using a homogeneous luminescent assay (Promega, Mannheim, Germany). All samples were measured in duplicates.
For L1CAM transfection, PT45-P1 cells were seeded into 6 well plates (2×10^5 cells/well), were grown overnight, followed by transfection with 5 μL/well DIMRIE reagent (Invitrogen) and 0.6 μg/well of the following plasmids: pcDNA3.1 (mock) or pcDNA3.1-L1CAM (L1CAM). Upon transfection for 18 hours, 1 mL medium containing 20% FCS was added and cells were left untreated or were treated as indicated for further 24 hours. For knock down of L1CAM, PT45-P1res cells were seeded into 12 well plates (1×10^5 cells/well), were grown overnight followed by transfection with 12 μL/well RNAiFect reagent (Invitrogen) and 2 μg/well of either Stealth negative control siRNA (Invitrogen) or Stealth L1CAM siRNA (Invitrogen). After overnight transfection, cells were either left untreated or treated as indicated for further 24 hours.

Turning to `CC(C)C[C@H](CC(=O)NO)C(=O)N[C@@H](Cc1ccc2ccccc2c1)C(=O)N[C@@H](C)C(N)=O` [TAPI-0], the “L1-dependent regulation of transcription for cathepsin B and CRABPII” value in test [1] is recorded as “blocked”. In addition, the “apoptosis inducing effect of etoposide (caspase-3/-7)” value in test [2] is given as “nor affect the apoptosis inducing effect of etoposide”.
